Results published in US4039540A, “3-Substituted quinoxaline-2-carboxamide-1,4-dioxides” (Pfizer Inc., priority 1975, dated 1977).
In brackets after ≈: the same amount, converted by molar mass. Read-outs that look alike come from different tables or passages of the source.

How the values were obtained:
[1] = tested on: E. coli; experiment: in vivo activity in mice infected with a lethal inoculum of E. coli; details: Escherichia coli, sc, subcutaneous, multiple dosing, read-out: IN VIVO E. coli, number of survivors among the treated animals
Description: (§1) In determining the in vivo activity of the quinoxaline-1,4-dioxides of this invention, the test compound is administered to mice which have been infected by […] injection of a lethal inoculum of pathogenic bacteria. The test compound is administered using a multiple dosing regimen and using either the oral (PO) or the subcutaneous (SC) route. The inoculum of bacteria varies from about 1 to about 10 times the amount needed to kill 100% of the mice under the conditions of the test. At the end of the test, the activity of the compound is assessed by counting the number of survivors among the treated animals.
(§2) In vitro and in vivo activity of representative compounds of this invention, determined as aforesaid, are reported in the following tabulation for compounds of the formula: [drawing 12]

[2] = tested on: Strep. pyogenes; experiment: in vivo activity in mice infected with a lethal inoculum of Strep. pyogenes; details: Streptococcus pyogenes, multiple dosing
Description: as §1, §2

[3] = tested on: Strep. pyrogens; experiment: in vitro antibacterial activity, two-fold serial dilution in Brain-Heart Infusion Broth (MIC); assay type: cell-based; details: overnight, anaerobic
Description: (§3) The broth is inoculated with bacteria and with the test quinoxaline-1,4-dioxide and then it is incubated overnight under anerobic conditions. On the next day, the test is read visually. The minimum inhibitory concentration (MIC) of test compound is the lowest concentration which prevents turbidity, i.e., which prevents growth of the microorganism.
as §2

[4] = tested on: E. coli; experiment: as above; assay type: cell-based; details: Escherichia coli, overnight, anaerobic
Description: as §3, §2

[5] = oral, read-out: IN VIVO Strep. pyogenes, number of survivors among the treated animals, PO (data in parenthesis)
[6] = sc, subcutaneous, read-out: IN VIVO Strep. pyogenes, number of survivors among the treated animals

Structure (SMILES): CCOC(=O)CSCc1c(C(=O)NC)[n+]([O-])c2ccccc2[n+]1[O-] [NHCH3; SCH2 CO2 Et; H]
- responders at 25 mg/kg [1]: 30%
- responders at 50 mg/kg [2, 5]: 0%
- responders at 50 mg/kg [2, 6]: 0%
- MIC [3]: 12.5 µg/mL (≈ 35.6 µM)
- MIC [4]: 12.5 µg/mL (≈ 35.6 µM)

Structure (SMILES): CCNC(=O)c1c(CS(=O)(=O)CCCN(C)C)[n+]([O-])c2ccccc2[n+]1[O-] [NHCH2 CH3; SO2 (CH2)3 N(CH3)2; H]
- responders at 25 mg/kg [1]: 100%
- responders at 50 mg/kg [2, 5]: 100%
- responders at 50 mg/kg [2, 6]: 100%
- MIC [3]: 1.56 µg/mL (≈ 3.94 µM)
- MIC [4]: 12.5 µg/mL (≈ 31.5 µM)

Structure (SMILES): CCCCNC(=O)c1c(CS(=O)(=O)CCCN(C)C)[n+]([O-])c2ccccc2[n+]1[O-] [NH(CH2)3 CH3; SO2 (CH2)3 N(CH3)2; H]
- responders at 25 mg/kg [1]: 50%
- responders at 50 mg/kg [2, 5]: 80%
- responders at 50 mg/kg [2, 6]: 100%
- MIC [3]: 25 µg/mL (≈ 58.9 µM)
- MIC [4]: 25 µg/mL (≈ 58.9 µM)

Structure (SMILES): CCNC(=O)c1c(CS(=O)(=O)CCCCN(C)C)[n+]([O-])c2ccccc2[n+]1[O-] [NHCH2 CH3; SO2 (CH2)4 N(CH3)2; H]
- responders at 25 mg/kg [1]: 20%
- MIC [3]: 12.5 µg/mL (≈ 30.5 µM)
- MIC [4]: 50 µg/mL (≈ 122 µM)

Structure (SMILES): CCCNC(=O)c1c(CS(=O)(=O)CCCOC(C)=O)[n+]([O-])c2ccccc2[n+]1[O-] [NHCH2 CH2 CH3; SO2 CH2 CH2 CH2 OAc; H]
- responders at 25 mg/kg [1]: 0%
- responders at 50 mg/kg [2, 5]: 0%
- responders at 50 mg/kg [2, 6]: 30%
- MIC [3]: 50 µg/mL (≈ 118 µM)
- MIC [4]: 200 µg/mL (≈ 470 µM)

Structure (SMILES): CNC(=O)c1c(CS(=O)(=O)CCCCN(C)C)[n+]([O-])c2ccccc2[n+]1[O-] [NHCH3; SO2 (CH2)4 N(CH3)2; H]
- responders at 25 mg/kg [1]: 40%
- MIC [3]: 50 µg/mL (≈ 126 µM)
- MIC [4]: 50 µg/mL (≈ 126 µM)

Structure (SMILES): NC(=O)c1c(CS(=O)(=O)CCCN2CCCC2)[n+]([O-])c2ccccc2[n+]1[O-] [NH2; drawing 14; H]
- responders at 25 mg/kg [1]: 50%
- MIC [3]: 6.25 µg/mL (≈ 15.8 µM)
- MIC [4]: 12.5 µg/mL (≈ 31.7 µM)

Structure (SMILES): CNC(=O)c1c(CS(=O)(=O)CCCN2CCCCC2)[n+]([O-])c2ccccc2[n+]1[O-] [NHCH3; drawing 23; H]
- responders at 25 mg/kg [1]: 100%
- responders at 50 mg/kg [2, 5]: 70%
- responders at 50 mg/kg [2, 6]: 100%
- MIC [3]: 6.25 µg/mL (≈ 14.8 µM)
- MIC [4]: 6.25 µg/mL (≈ 14.8 µM)

Structure (SMILES): CNC(=O)c1c(CS(=O)(=O)CCCN2CCOCC2)[n+]([O-])c2ccccc2[n+]1[O-] [NHCH3; drawing 18; H]
- responders at 25 mg/kg [1]: 0%
- responders at 50 mg/kg [2, 5]: 70%
- responders at 50 mg/kg [2, 6]: 100%
- MIC [3]: 25 µg/mL (≈ 58.9 µM)
- MIC [4]: 25 µg/mL (≈ 58.9 µM)

Structure (SMILES): CCNC(=O)c1c(CS(=O)(=O)CCCO)[n+]([O-])c2ccccc2[n+]1[O-] [NHCH2 CH3; SO2 CH2 CH2 CH2 OH; H]
- responders at 25 mg/kg [1]: 10%
- responders at 50 mg/kg [2, 5]: 20%
- responders at 50 mg/kg [2, 6]: 80%
- MIC [3]: < 0.39 µg/mL
- MIC [4]: 6.25 µg/mL (≈ 16.9 µM)

Structure (SMILES): CCNC(=O)c1c(CS(=O)(=O)CCO)[n+]([O-])c2ccccc2[n+]1[O-] [NHEt; SO2 CH2 CH2 OH; H]
- responders at 25 mg/kg [1]: 90%
- responders at 50 mg/kg [2, 5]: 80%
- responders at 50 mg/kg [2, 6]: 60%
- MIC [3]: 1.56 µg/mL (≈ 4.4 µM)
- MIC [4]: 6.25 µg/mL (≈ 17.6 µM)

Structure (SMILES): CNC(=O)c1c(CSCCO)[n+]([O-])c2ccccc2[n+]1[O-] [NHMe; SCH2 CH2 OH; H]
- responders at 25 mg/kg [1]: 100%
- responders at 50 mg/kg [2, 5]: 60%
- responders at 50 mg/kg [2, 6]: 100%
- MIC [3]: 0.781 µg/mL (≈ 2.52 µM)
- MIC [4]: 0.781 µg/mL (≈ 2.52 µM)

Structure (SMILES): CCCNC(=O)c1c(CSCCO)[n+]([O-])c2ccccc2[n+]1[O-] [NHPr; SCH2 CH2 OH; H]
- responders at 25 mg/kg [1]: 20%
- responders at 50 mg/kg [2, 5]: 30%
- responders at 50 mg/kg [2, 6]: 50%
- MIC [3]: 6.25 µg/mL (≈ 18.5 µM)
- MIC [4]: 25 µg/mL (≈ 74.1 µM)

Structure (SMILES): CNC(=O)c1c(CS(=O)(=O)CCOC(C)=O)[n+]([O-])c2ccccc2[n+]1[O-] [NHCH3; SO2 CH2 CH2 OAc; H]
- responders at 25 mg/kg [1]: 80%
- responders at 50 mg/kg [2, 5]: 70%
- responders at 50 mg/kg [2, 6]: 90%
- MIC [3]: < 0.391 µg/mL
- MIC [4]: 3.12 µg/mL (≈ 8.15 µM)

Structure (SMILES): CCNC(=O)c1c(CS(=O)(=O)CCCN2CCCC2)[n+]([O-])c2ccccc2[n+]1[O-] [NHCH2 CH3; drawing 16; H]
- responders at 25 mg/kg [1]: 60%
- MIC [3]: 12.5 µg/mL (≈ 29.6 µM)
- MIC [4]: 50 µg/mL (≈ 118 µM)

Structure (SMILES): CN(C)CCNC(=O)c1c(CS(=O)(=O)CCCN2CCCCC2)[n+]([O-])c2ccccc2[n+]1[O-] [NHCH2 CH2 N(CH3)2; drawing 21; H]
- responders at 25 mg/kg [1]: 40%
- MIC [3]: 50 µg/mL (≈ 104 µM)
- MIC [4]: 100 µg/mL (≈ 209 µM)

Structure (SMILES): CNC(=O)c1c(CS(=O)(=O)CCCN2CCCC2)[n+]([O-])c2ccccc2[n+]1[O-] [NHCH3; drawing 13; H]
- responders at 25 mg/kg [1]: 80%
- MIC [3]: 3.12 µg/mL (≈ 7.65 µM)
- MIC [4]: 6.25 µg/mL (≈ 15.3 µM)

Structure (SMILES): CN(C)C(=O)c1c(CS(=O)(=O)CCCN2CCCC2)[n+]([O-])c2ccccc2[n+]1[O-] [N(CH3)2; drawing 15; H]
- responders at 25 mg/kg [1]: 80%
- MIC [3]: 3.12 µg/mL (≈ 7.4 µM)
- MIC [4]: 6.25 µg/mL (≈ 14.8 µM)
